# Measurements taken from ChEMBL document CHEMBL1201862, “PubChem BioAssay data set” (2004).
# The source made the active and inactive calls.
# Experiments:
# [1] = Luminescence Cell-Based Dose Confirmation HTS to Identify Inhibitors of Platelet Dense Granule Release. [Related pubchem assays: 1663 (Primary HTS), 1678 (Summary of Project)]; format: functional
# [2] = molecular target: Luciferin 4-monooxygenase (Photinus pyralis, UniProt P08659); experiment: firefly luciferase enzyme inhibitors, dose response, biochemical, luminescence (AID 1891)
# Luciferin 4-monooxygenase, sequence (P08659 whole entry): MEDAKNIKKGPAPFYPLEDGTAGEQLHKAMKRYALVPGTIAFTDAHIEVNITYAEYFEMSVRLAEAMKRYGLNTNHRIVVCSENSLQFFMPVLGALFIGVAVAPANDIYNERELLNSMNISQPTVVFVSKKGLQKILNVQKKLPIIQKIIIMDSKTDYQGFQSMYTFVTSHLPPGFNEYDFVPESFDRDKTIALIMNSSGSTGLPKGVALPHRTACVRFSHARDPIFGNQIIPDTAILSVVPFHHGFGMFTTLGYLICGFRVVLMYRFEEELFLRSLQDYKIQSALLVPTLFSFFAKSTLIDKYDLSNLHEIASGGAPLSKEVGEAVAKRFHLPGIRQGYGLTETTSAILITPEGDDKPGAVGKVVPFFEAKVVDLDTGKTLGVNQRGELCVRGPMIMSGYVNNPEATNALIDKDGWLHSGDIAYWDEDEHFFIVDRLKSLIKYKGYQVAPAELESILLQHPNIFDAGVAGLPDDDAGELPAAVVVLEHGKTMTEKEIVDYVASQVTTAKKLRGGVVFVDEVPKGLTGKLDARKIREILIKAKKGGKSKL
# [3] = molecular target: FAD-linked sulfhydryl oxidase ALR (Homo sapiens, UniProt P55789); experiment: inhibitors of human ALR sulfhydryl oxidase, dose response, biochemical, H2O2 detection, luminescence, cherry-pick (AID 493248)
# FAD-linked sulfhydryl oxidase ALR, sequence (P55789 whole entry, the tested form may be a part): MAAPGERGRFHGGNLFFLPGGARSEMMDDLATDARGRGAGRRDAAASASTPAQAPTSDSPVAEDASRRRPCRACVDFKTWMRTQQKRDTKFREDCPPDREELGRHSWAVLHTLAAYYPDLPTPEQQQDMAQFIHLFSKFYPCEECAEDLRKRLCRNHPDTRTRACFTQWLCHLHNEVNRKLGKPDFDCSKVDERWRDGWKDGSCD
# Fatty acid synthase [4] = molecular target: T1, Fatty acid synthase (Homo sapiens, UniProt P49327); experiment: FAS thioesterase domain inhibitors, dose response, biochemical, endpoint fluorescence intensity, uHTS hits (AID 624327); format: functional;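 note: fluorescence from hydrolysis of an O-methyl fluorescein acyl ester substrate by the enzyme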
# T1 sequence (P49327 whole entry, the tested form may be a part): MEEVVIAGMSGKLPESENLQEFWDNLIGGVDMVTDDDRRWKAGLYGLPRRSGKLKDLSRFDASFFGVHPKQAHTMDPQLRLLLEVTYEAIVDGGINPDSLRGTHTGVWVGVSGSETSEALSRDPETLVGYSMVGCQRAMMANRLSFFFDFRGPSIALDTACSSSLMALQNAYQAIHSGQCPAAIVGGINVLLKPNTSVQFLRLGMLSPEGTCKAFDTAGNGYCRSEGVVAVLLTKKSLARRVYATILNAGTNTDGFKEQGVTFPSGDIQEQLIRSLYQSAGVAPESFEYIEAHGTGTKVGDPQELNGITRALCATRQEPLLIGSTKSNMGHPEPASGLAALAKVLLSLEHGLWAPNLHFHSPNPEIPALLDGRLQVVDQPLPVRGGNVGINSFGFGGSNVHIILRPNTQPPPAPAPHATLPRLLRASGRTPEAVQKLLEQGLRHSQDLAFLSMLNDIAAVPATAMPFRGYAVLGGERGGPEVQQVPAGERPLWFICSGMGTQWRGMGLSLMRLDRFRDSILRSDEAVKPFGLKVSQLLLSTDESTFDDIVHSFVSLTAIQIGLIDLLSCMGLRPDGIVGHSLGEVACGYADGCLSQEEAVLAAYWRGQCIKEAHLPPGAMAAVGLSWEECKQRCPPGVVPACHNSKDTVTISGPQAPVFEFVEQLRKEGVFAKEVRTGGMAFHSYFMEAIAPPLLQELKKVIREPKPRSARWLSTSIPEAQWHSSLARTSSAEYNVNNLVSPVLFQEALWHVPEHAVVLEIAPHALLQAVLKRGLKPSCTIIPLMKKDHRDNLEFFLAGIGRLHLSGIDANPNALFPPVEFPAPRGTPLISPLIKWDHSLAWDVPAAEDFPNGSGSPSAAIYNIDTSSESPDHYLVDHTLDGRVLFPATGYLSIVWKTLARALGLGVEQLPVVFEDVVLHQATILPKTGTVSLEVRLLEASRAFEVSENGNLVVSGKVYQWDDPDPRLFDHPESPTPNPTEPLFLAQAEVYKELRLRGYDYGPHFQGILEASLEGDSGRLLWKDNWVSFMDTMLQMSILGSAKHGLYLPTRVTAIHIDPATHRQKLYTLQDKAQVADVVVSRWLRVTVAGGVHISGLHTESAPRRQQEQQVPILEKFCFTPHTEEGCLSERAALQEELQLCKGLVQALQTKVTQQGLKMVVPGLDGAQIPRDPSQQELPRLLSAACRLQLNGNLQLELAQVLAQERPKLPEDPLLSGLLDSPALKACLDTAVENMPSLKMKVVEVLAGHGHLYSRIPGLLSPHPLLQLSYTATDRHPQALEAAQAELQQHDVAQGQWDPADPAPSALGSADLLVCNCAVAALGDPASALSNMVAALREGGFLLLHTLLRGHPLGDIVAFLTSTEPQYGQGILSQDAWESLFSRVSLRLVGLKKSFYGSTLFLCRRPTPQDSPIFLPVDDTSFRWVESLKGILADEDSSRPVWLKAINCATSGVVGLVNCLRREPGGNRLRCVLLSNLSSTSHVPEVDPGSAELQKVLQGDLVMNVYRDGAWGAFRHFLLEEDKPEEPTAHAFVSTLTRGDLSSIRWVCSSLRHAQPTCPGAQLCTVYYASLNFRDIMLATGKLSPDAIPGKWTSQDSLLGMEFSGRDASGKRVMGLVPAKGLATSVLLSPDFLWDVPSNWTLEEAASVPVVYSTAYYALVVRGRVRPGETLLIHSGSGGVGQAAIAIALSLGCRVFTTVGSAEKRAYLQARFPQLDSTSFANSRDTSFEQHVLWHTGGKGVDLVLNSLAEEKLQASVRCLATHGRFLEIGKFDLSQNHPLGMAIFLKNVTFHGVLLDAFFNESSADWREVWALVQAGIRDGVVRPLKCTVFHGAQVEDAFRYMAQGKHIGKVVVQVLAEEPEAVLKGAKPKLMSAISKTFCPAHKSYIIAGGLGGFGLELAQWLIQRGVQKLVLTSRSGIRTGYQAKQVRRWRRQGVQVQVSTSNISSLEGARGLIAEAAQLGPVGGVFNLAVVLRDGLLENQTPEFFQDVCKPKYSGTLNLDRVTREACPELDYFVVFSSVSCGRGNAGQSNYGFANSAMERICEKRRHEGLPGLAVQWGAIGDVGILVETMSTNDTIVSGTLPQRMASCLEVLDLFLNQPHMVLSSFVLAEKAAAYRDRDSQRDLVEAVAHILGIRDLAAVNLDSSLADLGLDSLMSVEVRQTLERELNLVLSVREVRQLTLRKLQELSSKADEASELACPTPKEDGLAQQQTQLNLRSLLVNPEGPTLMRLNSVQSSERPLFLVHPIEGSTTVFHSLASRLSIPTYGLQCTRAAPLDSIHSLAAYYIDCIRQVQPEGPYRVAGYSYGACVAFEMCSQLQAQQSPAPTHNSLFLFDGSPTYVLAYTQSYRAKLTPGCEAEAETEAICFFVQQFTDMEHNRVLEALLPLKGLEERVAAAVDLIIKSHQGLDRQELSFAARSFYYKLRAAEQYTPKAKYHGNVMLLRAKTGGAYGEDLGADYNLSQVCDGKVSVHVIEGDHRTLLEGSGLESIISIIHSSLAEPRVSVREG
# Fatty acid synthase [5] = molecular target: T1, Fatty acid synthase; experiment: FAS thioesterase domain inhibitors, dose response, biochemical, kinetic fluorescence intensity (AID 624326); format: functional;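 note: rate of fluorescence rise from hydrolysis of a fluorogenic O-methyl fluorescein ester substrate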
# H9c2 = experiment: cells; format: functional, cell-based; conditions: Rattus norvegicus, H9c2, Myocardium;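 note: confirmatory concentration-response retest of ultra-high-throughput screening hits for modulation of myocardial damage; cell death induced by hydrogen peroxide oxidative stress; compound pretreatment for 60 min then peroxide exposure for 2 h; potency is for protecting the cells against peroxide damage rather than for killing them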
# [6] = molecular target: T2, Heat shock factor protein 1 (Mus musculus, UniProt P38532); experiment: inhibition of MG132-induced HSE-luciferase signal, confirmation, cell-based, NIH3T3, luminescence, dose retest (AID 2382); format: functional;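 note: NIH3T3 fibroblasts with HSF1-driven luciferase reporter stressed by proteasome inhibitor MG132; luminescence from HSF1-driven luciferase expression after 8 hours of MG132 stress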
# T2 sequence (P38532 whole entry): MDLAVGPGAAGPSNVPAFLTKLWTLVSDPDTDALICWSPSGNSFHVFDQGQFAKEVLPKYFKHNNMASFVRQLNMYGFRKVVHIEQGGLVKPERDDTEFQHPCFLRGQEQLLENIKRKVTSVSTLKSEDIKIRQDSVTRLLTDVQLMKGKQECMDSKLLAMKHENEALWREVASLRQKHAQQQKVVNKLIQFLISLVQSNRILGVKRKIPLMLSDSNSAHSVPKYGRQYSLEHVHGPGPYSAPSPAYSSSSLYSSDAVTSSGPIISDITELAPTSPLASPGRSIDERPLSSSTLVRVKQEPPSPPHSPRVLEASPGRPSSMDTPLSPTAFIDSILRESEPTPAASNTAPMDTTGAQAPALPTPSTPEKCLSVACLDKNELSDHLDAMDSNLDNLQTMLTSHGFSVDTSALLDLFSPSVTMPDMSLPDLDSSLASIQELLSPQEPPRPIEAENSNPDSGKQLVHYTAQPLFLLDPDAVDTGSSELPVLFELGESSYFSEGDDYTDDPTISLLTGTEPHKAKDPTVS
# [7] = Luminescence Cell-Based Dose Response HTS to Identify Inhibitors of 5'UTR Stem-Loop Driven Prion Protein mRNA Translation in H4 Neuroglioblastoma Cells. [Related pubchem assays: 1827 (Project Summary), 1813 (Primary HTS)]; format: functional
# [8] = inhibitors of SNCA 5'UTR-driven reporter translation, confirmation, H4 neuroglioma cells, luminescence (AID 1988); format: functional, cell-based
# [9] = inhibitors of firefly luciferase expression or activity, dose response, H4 neuroglioma cells, luminescence (AID 1990); format: functional, cell-based
# [10] = molecular target: Heat shock protein HSP 90-alpha (Homo sapiens, UniProt P07900); format: functional, organism-based
# Protein RecA = molecular target: T3, Protein RecA (Mycobacterium tuberculosis, UniProt P9WHJ3); experiment: Fluorescence Cell-Free Homogeneous Dose Retest to Identify Inhibitors of RecA-Intein Splicing Activity. [Related pubchem assays (depositor defined):AID2097, AID2223, AID489010, AID492950]; format: functional
# T3 sequence (P9WHJ3 whole entry): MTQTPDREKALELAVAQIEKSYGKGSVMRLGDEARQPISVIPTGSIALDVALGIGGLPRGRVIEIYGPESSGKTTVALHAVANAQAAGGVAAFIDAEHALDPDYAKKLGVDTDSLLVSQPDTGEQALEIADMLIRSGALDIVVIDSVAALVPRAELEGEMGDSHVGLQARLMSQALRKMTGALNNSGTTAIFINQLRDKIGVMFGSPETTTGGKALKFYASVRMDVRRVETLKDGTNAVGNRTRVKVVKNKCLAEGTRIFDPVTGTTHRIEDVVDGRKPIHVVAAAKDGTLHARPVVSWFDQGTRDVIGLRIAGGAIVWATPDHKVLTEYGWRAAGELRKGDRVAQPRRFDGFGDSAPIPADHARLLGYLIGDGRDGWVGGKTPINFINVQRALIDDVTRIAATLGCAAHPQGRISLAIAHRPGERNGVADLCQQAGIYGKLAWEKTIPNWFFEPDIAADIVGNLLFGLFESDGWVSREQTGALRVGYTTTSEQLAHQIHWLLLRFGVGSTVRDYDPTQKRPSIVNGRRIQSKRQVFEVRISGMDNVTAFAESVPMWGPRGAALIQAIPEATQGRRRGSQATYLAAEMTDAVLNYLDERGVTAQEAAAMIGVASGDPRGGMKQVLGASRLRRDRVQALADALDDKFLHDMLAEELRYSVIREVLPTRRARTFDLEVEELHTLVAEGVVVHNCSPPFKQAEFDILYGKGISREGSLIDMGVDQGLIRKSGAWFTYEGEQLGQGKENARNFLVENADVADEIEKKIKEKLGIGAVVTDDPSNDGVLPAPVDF
# Genome polyprotein = Genome polyprotein (dengue virus type 2, UniProt P29990); experiment: Dengue-2 NS5 methyltransferase inhibitors, primary screen, biochemical, confirmation dose response (AID 588689); format: functional
# Genome polyprotein, sequence (P29990 2492-3391 limits assumed): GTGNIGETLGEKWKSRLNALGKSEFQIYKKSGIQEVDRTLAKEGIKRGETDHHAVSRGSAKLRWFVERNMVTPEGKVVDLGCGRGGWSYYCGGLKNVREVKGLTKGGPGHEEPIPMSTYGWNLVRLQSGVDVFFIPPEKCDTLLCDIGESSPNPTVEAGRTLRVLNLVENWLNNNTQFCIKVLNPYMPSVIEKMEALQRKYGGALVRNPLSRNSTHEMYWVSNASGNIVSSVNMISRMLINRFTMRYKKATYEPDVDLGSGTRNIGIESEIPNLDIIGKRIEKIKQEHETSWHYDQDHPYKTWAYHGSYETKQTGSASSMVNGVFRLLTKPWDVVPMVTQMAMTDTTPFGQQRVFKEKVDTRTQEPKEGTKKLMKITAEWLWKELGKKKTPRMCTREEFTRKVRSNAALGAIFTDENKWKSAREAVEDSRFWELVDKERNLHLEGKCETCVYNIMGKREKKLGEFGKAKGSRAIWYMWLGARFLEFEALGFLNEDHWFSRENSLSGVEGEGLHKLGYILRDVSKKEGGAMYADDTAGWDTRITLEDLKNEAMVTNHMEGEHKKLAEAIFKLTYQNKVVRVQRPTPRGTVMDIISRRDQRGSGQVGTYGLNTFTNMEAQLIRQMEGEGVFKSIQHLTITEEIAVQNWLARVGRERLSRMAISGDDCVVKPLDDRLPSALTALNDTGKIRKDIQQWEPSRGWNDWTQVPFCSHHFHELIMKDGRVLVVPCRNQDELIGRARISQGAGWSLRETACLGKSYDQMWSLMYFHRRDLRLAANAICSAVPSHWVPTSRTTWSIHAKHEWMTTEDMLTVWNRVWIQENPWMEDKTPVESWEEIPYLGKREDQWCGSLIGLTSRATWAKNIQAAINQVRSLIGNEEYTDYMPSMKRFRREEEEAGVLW
# [11] = molecular target: T4, Replicative DNA helicase DnaB (Mycobacterium tuberculosis, UniProt P9WMR3); experiment: DnaB intein splicing inhibitors, dose response, biochemical, cell-free fluorescence (AID 449749); format: functional
# T4 sequence (P9WMR3 whole entry): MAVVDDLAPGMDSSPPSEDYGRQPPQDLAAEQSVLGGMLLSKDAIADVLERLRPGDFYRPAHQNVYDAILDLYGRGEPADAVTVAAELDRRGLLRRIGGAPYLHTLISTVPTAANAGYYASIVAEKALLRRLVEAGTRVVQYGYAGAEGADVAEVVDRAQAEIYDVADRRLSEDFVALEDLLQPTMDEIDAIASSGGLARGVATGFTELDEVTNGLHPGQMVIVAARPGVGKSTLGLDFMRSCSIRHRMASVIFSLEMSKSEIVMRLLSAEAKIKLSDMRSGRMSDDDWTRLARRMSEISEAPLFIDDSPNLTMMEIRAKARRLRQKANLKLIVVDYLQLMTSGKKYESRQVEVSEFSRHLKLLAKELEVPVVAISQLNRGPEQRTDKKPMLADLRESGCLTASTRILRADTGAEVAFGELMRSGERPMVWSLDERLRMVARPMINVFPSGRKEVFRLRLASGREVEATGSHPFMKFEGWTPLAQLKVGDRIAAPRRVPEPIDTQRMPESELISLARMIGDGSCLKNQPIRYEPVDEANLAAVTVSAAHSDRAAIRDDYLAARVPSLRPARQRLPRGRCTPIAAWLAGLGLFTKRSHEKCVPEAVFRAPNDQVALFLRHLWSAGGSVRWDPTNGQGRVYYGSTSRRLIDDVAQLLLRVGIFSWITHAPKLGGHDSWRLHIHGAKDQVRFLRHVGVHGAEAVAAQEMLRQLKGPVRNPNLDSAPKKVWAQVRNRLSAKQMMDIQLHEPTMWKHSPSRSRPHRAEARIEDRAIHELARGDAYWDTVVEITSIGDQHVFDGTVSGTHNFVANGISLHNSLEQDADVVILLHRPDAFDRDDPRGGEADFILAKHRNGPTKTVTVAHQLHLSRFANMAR
# [12] = molecular target: T5, Polyadenylate-binding protein 1 (Homo sapiens, UniProt P11940); experiment: PABP1 MLLE–PAM2 interaction inhibitors, dose response, miRNA deadenylation inhibitor project, biochemical, fluorescence polarization, Cy5-PAM2 peptide, secondary (AID 602260); format: functional; conditions: read-out: IC50_Mean
# T5 sequence (P11940 whole entry): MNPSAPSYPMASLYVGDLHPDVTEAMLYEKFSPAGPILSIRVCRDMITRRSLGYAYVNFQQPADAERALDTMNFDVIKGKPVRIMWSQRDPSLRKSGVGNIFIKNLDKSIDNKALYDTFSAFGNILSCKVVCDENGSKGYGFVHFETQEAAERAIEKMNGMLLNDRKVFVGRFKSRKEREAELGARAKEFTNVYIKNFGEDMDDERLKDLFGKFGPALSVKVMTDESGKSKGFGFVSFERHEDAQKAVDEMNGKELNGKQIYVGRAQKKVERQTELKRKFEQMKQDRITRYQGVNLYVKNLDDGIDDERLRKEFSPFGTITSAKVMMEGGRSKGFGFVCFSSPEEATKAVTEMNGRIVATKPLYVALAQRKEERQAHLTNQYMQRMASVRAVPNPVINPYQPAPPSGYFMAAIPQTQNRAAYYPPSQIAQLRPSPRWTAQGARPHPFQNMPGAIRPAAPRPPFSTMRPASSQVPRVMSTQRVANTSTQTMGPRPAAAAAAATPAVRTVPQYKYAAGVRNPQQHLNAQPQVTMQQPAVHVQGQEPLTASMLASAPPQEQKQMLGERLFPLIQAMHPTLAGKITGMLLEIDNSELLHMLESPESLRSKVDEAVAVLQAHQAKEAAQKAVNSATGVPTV
# [13] = molecular target: T5, Polyadenylate-binding protein 1; experiment: PABP1 MLLE–PAM2 binding inhibitor potency, dose response, biochemical, fluorescence polarization, FITC-PAM2 peptide (AID 602259); format: functional; conditions: read-out: IC50_Mean
compound,measurement,setting,value
CC1Cc2nc(SCC(=O)N3CCCc4ccccc43)n(C)c(=O)c2S1 (stereo not given),EC50,[1],> 112 µM (not active)
same,EC50,[2],> 112 µM (not active)
O=C(NCc1cccnc1)C(=O)NCC(c1ccco1)N1CCN(c2ccccc2)CC1 (stereo not given),AC50,[3],2.78 µM (active)
COc1ccc(CN2CCN(C(=O)Cn3nc(C(=O)O)c4ccccc4c3=O)CC2)cc1F,EC50,[1],7.7 µM (active)
same,EC50,[2],> 112 µM (not active)
SC1=NC2(CCCCC2)NN1c1ccccc1,AC50,[3],1.79 µM (active)
O=C(COC(=O)c1cc([N+](=O)[O-])ccc1N1CCOCC1)Nc1ccc(Cl)cc1,IC50,Fatty acid synthase [4],2.23 µM (active)
same,IC50,Fatty acid synthase [5],1.96 µM (active)
Cc1cc(C)c([N+](=O)[O-])cc1NCC(=O)N1CCN(c2ccccc2)CC1,IC50,Fatty acid synthase [4],9.53 µM (active)
same,IC50,Fatty acid synthase [5],6.55 µM (active)
COc1cccc(-c2ccc(SCC(=O)N3CCN(c4ccccc4)CC3)nn2)c1,IC50,H9c2,16.1 µM (active)
Cc1cc(F)ccc1NC(=O)c1cc(S(=O)(=O)N2CCOCC2)cn1C,EC50,[1],> 112 µM (not active)
same,EC50,[2],> 112 µM (not active)
CCN(CC(=O)Nc1c(F)cccc1F)C(=O)Cc1nnc(O)c2ccccc12,EC50,[6],> 195 µM (not active)
same,IC50,H9c2,> 79 µM (inactive)
COc1cc(C(=O)Nc2ccc(NC(=O)c3ccco3)nc2)cc(OC)c1OC,IC50,H9c2,21.4 µM (active)
O=C(CCc1nc(O)c2ccccc2n1)Nc1ccc(F)cc1,IC50,H9c2,> 79 µM (inactive)
O=C(NC12CC3CC(CC(C3)C1)C2)c1cc([N+](=O)[O-])ccc1N1CCOCC1,IC50,Fatty acid synthase [4],24.9 µM (inactive)
same,IC50,Fatty acid synthase [5],14.7 µM (active)
O=C(CCN1C(=O)C2C3CCC(C3)C2C1=O)Nc1ccccc1Cl (stereo not given),EC50,[1],> 112 µM (not active)
same,EC50,[2],> 112 µM (not active)
COc1cc2nc(C3CCC3)nc(N3CCN(c4ccccn4)CC3)c2cc1OC,EC50,[7],14.6 µM (active)
same,EC50,[8],15.2 µM (active)
same,IC50,H9c2,> 79 µM (inactive)
same,EC50,[9],15.1 µM (active)
Cc1ccccc1C(=O)OCn1nnc2ccccc2c1=O,EC50,[1],16.2 µM (active)
same,EC50,[2],> 112 µM (not active)
NC(=O)N1CCN(C(=O)c2ccco2)CC1,EC50,[1],> 112 µM (not active)
same,EC50,[2],> 112 µM (not active)
Cc1noc(NS(=O)(=O)c2ccc(NC(=O)c3cnc4n(c3=O)CCS4)cc2)c1C,AC50,[3],0.255 µM (active)
Cn1c(SCc2cccc(Cl)c2)nc(C(F)(F)F)cc1=O,IC50,Fatty acid synthase [4],18.4 µM (active)
same,IC50,Fatty acid synthase [5],12.2 µM (active)
Cn1c(S)nnc1CCNC(=O)OC(C)(C)C,AC50,[3],2.79 µM (active)
Cc1ccc(S(=O)(=O)N2CCN=C2SCc2cccnc2)cc1,AC50,[3],0.046 µM (active)
CC(C)=NNc1nc(-c2ccccc2)cs1,AC50,[3],0.601 µM (active)
O=C(Nc1ccn(Cc2ccc(F)cc2)n1)c1ccncc1,EC50,[1],> 112 µM (not active)
same,EC50,[2],> 112 µM (not active)
CCCc1cc(=O)oc2cc(OCc3ccc(C(=O)O)cc3)ccc12,AC50,[10],3.75 µM (active)
COc1cccc(N2CCN(Cc3ccc(Cl)cc3)CC2)c1,EC50,[1],> 112 µM (not active)
same,EC50,[2],> 112 µM (not active)
COCCCNC(=O)/C(C#N)=C1\N=C(NC(=O)c2cccs2)c2ccccc21,IC50,H9c2,> 79 µM (inactive)
COc1ccccc1C(=O)Nc1ccc(C2=NNC(=O)CC2C)cc1 (stereo not given),EC50,[1],0.361 µM (active)
same,EC50,[2],> 112 µM (not active)
CC1Cc2ccccc2N1C(=O)Cn1nc(C(=O)O)c2ccccc2c1=O (stereo not given),IC50,H9c2,13.7 µM (active)
CCOC(=O)CCSc1nc2c(c(C(F)(F)F)c1C#N)CCC2,IC50,Fatty acid synthase [4],7.74 µM (active)
same,IC50,Fatty acid synthase [5],8.57 µM (active)
Cc1cccc(-n2c(CCn3nc(C)c([N+](=O)[O-])c3C)n[nH]c2=S)c1,AC50,[3],4.3 µM (active)
O=C1C(Cl)=C(N2CCCCC2)C(=O)N1c1ccccc1,EC50,Protein RecA,3.22 µM (active)
same,IC50,Genome polyprotein,66.9 µM (active)
same,AC50,[11],8.22 µM (active)
CCCCOc1ccc(C(=O)NCC(=O)N(C)Cc2nc(O)c3ccccc3n2)cc1,IC50,H9c2,> 79 µM (inactive)
COCCNC(=O)COC(=O)c1ccc(OCC(=O)Nc2ccccc2OC)c(OC)c1,IC50,H9c2,> 79 µM (inactive)
CC1CCCN(C(=O)COC(=O)c2cc([N+](=O)[O-])ccc2N2CCOCC2)C1 (stereo not given),IC50,Fatty acid synthase [4],2.27 µM (active)
same,IC50,Fatty acid synthase [5],1.91 µM (active)
Cc1ccc(S(=O)(=O)N2CCN(C(=O)COC(=O)c3cc([N+](=O)[O-])ccc3NCCO)CC2)c(C)c1,IC50,Fatty acid synthase [4],6.04 µM (active)
same,IC50,Fatty acid synthase [5],2.7 µM (active)
COc1ccc(CNC(=O)C[C@H]2C[C@H](C(=O)N3CCOCC3)[C@@]3(CCC4CCCC4)c4[nH]c5ccc(Cl)cc5c4CCN3C2=O)cc1OC,IC50,Fatty acid synthase [4],1.71 µM (active)
same,IC50,Fatty acid synthase [5],0.878 µM (active)
COc1ccc(Cl)cc1-c1cc(C(=O)NCc2ccc(C(F)(F)F)cc2)[nH]n1,IC50,Fatty acid synthase [4],15.4 µM (active)
same,IC50,Fatty acid synthase [5],17.1 µM (active)
O=C(CNC(=O)c1ccccc1F)N/N=C/c1cc(Br)ccc1OC(=O)/C=C/c1ccco1,IC50,H9c2,> 79 µM (inactive)
COc1cc(/C=N/NC(=O)c2cccnc2)ccc1OS(=O)(=O)c1ccc(F)cc1,IC50,H9c2,7.92 µM (active)
O=C(O)CN1C(=O)/C(=C2\SC(=S)N(C(Cc3ccccc3)C(=O)O)C2=O)c2ccccc21 (stereo not given),IC50,[12],> 66 µM (inactive)
same,IC50,[13],> 66 µM (inactive)
same,IC50,Genome polyprotein,42 µM (active)
